In PubChem BioAssay (NCI):
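Five compound concentrations were applied to cells in 96-well plates for 48 hours; endpoints were derived by simple linear interpolation of the resulting dose-response curve. Definition used: TGI = concentration required for complete inhibition of growth.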

Columns and labels:
Assay in all cases: DTP human tumour cell line panel, 48 h
[1] = tested on: M14 melanoma
[2] = tested on: HS 578T breast
[3] = tested on: NCI-H23 lung
[4] = tested on: ACHN renal
[5] = tested on: OVCAR-4 ovarian
[6] = tested on: CCRF-CEM leukemia

| SMILES | TGI [1] [µM] | TGI [2] [µM] | TGI [3] [µM] | TGI [4] [µM] | TGI [5] [µM] | TGI [6] [µM] |
| --- | --- | --- | --- | --- | --- | --- |
| CCOP(=O)(OCC)/C(F)=C/c1ccc(F)cc1 | > 100 | > 100 | > 100 | > 100 | > 100 | > 100 |
| CC(=O)O[C@H]1CC[C@@]2(C)C(=CC[C@@H]3[C@@H]2CC[C@]2(C)C(=O)/C(=C\c4ccccc4)C[C@@H]32)C1 | > 100 | – | > 100 | > 100 | > 100 | > 100 |
| CCCCCCCC(=O)N1C2CC3CCC2(CS1(=O)=O)C3(C)C (stereo not given) | 41 | > 100 | > 100 | > 100 | > 100 | 44.8 |
| CC(=O)C1=C(C)N2C(=NC3=C(CCc4ccccc43)C2c2ccc(Cl)cc2)S1 (stereo not given) | > 100 | > 100 | > 100 | > 100 | > 100 | > 96.6 |
| CCOC(=O)c1nc2ccccc2nc1Oc1ccc(F)cc1 | > 100 | > 100 | – | > 100 | – | > 100 |
| O=C1C(CN2CCCC2)CCC1CN1CCCC1 (stereo not given) | 29.7 | 55.7 | 38.2 | 29.3 | 48.7 | > 60.1 |
| Cn1c2ccccc2n2c3ccccc3c3nnc(N)c-3c12 | > 100 | 10.8 | > 100 | > 100 | > 100 | > 100 |
| N#Cc1nc(CCC(C(=O)O)N2C(=O)c3ccccc3C2=O)oc1N (stereo not given) | > 100 | > 100 | > 100 | > 100 | > 100 | > 100 |
| N#CC(C#N)=CNC(=S)Nc1ccc(S(=O)(=O)Nc2nccs2)cc1 | > 100 | – | > 100 | > 100 | > 100 | – |
| O=c1cc(O)c1=O | > 100 | > 100 | > 100 | > 100 | > 100 | > 100 |
| CC1=C(C(N)=O)C(c2ccncc2)C(C#N)C(=O)N1 (stereo not given) | > 100 | > 100 | > 100 | > 100 | > 100 | > 100 |
| C[C@@H](NC(=O)Nc1cccc(C(=O)Nc2cc(C(C)(C)C)ccc2C(=O)O)n1)c1ccccc1 | > 100 | > 100 | > 100 | > 100 | > 100 | – |
| C/C(=N\NC(N)=O)C(CN1CCOCC1)C(c1ccccc1)c1c(O)c2ccccc2oc1=O (stereo not given) | > 100 | > 100 | > 100 | > 100 | > 100 | > 100 |
| c1ccc2sc(C3(N4CCCCCC4)CCCCC3)cc2c1 | 53.6 | 44.7 | 41.5 | 83.8 | > 100 | 33.3 |
| C[C@H]1CC(=O)C[C@@H]2CC[C@@H]3[C@H](CC[C@]4(C)C(OC(=O)c5cccc6c(=O)c7ccccc7[nH]c56)CC[C@@H]34)[C@]21C (stereo not given in full) | > 100 | > 100 | > 100 | > 100 | > 100 | 73.2 |
| CC(=O)OCC1OC(NC(=S)Nn2c(-c3ccccc3)nc3ccccc3c2=O)C(OC(C)=O)C(OC(C)=O)C1OC(C)=O (stereo not given) | > 100 | > 100 | > 100 | > 100 | – | > 100 |

| SMILES | TGI [1] [µM] | TGI [2] [µM] | TGI [3] [µM] | TGI [4] [µM] | TGI [5] [µM] | TGI [6] [µM] |
| --- | --- | --- | --- | --- | --- | --- |
| CCOC(=O)c1sc(N)nc1N1CCCC1 | > 100 | > 100 | > 100 | > 100 | > 100 | > 100 |
| NC(Cc1c2ccccc2cc2ccccc12)C(=O)O (stereo not given) | > 100 | – | > 100 | > 100 | > 100 | > 100 |
| CCOC(=O)c1cn2c(n1)sc1cc([N+](=O)[O-])ccc12 | > 100 | > 100 | > 100 | > 100 | > 100 | > 100 |
| COc1nc2c(c(=O)[nH]1)N=C(c1ccc([N+](=O)[O-])cc1)CC(c1ccccc1)N2 (stereo not given) | > 100 | – | > 100 | > 100 | > 100 | > 100 |
| COc1ccc2nc3cc(Cl)ccc3c(NCCCN(C)CCCNc3ccc4ncn5c6ccccc6c(=O)c3c45)c2c1 | 5.8 | > 19.5 | 6.13 | 3.93 | 3.95 | > 25 |
| C(#C[C@@]12CCC[C@@H]1NCO2)c1ccc2c(c1)OCO2 | 73.1 | > 100 | > 100 | > 100 | > 100 | > 100 |
| Cc1cccc2c(=O)c3cccc(CC(=O)O)c3oc12 | > 100 | > 100 | > 100 | > 100 | > 100 | > 100 |
| C/C(=C/C(=O)N(C)c1ccccc1Cl)O[Si](C(C)C)(C(C)C)C(C)C | 70.9 | – | 62.2 | – | > 100 | – |
| O=c1oc2cc(O)ccc2c(O)c1C(c1ccc(/C=C/c2ccccc2)cc1)c1c(O)c2ccc(O)cc2oc1=O | > 100 | > 100 | > 100 | > 100 | > 100 | > 100 |
| C/C(=C\COP(=O)(O)CP(=O)(O)O)CC/C=C(\C)CNc1ccccc1 | > 100 | > 100 | > 100 | > 100 | – | > 100 |
| FC(F)(F)c1ccc2c(c1)nc(Cc1ccc(Cl)cc1)n2CC1CCCN2CCCCC12 (stereo not given) | 4.91 | 6.9 | – | 23.6 | 36.1 | – |
| Cc1ccc(Nc2nc3ccccc3nc2NS(=O)(=O)c2ccc(N)cc2)cc1 | > 100 | > 100 | 16.2 | > 100 | 71 | 70.7 |
| COc1cc(N(CCC#N)CCC#N)ccc1/C(N=Nc1cccc([N+](=O)[O-])c1)=N\NC(=O)c1ccc(C)cc1 | > 100 | > 100 | > 100 | > 100 | > 100 | 99.2 |
| Cc1nnc(NS(=O)(=O)c2ccc(N=Nc3c(O)c(C(=O)O)cc4ccccc34)cc2)s1 | > 100 | > 100 | > 100 | > 100 | > 100 | > 100 |
| CSc1ccc(/C=C2\N=C(c3ccccc3)N(NC(=O)c3c(Cl)c(Cl)c(Cl)c(Cl)c3-c3nc4ccccc4[nH]3)C2=O)cc1 | > 100 | > 100 | 83 | > 100 | – | > 100 |
